Measurements reported in patent publication US20060135607A1, “Drug for improving prognosis for subarachnoid hemorrhage” (MOCHIDA PHARMACEUTICAL CO., LTD., priority 2003, published 2006).

Test system: patients with subarachnoid hemorrhage
Experiment: Clinical study of postoperative EPA administration in patients with subarachnoid hemorrhage caused by ruptured aneurysm (GOS, survival, adverse events)
Assay type: in vivo, human
Source text: Sixty four patients with subarachnoid hemorrhage caused by the ruptured aneurysm and subjected to surgical operations by the third day after onset (22 males and 42 females of the ages from 30's-80's) were divided into two groups (each having 32 individuals) designated as an EPA-administration group and an EPA-non-administration group. In addition, no difference was recognized in their background factors of both groups. Just after the operation, the EPA administration group received the administration of ethyl eicosapentaenoate (trade name: Epadel, manufactured by Mochida Pharmaceutical Co., Ltd.), 1,800 mg divided in three-doses a day for 14 days. Subsequently, the administration was continued during the hospital stay. At the stage of being impossible to dietary intake, tube-feedings were carried out. EPA suspended in hot water was administered through a stomach tube (Magen Sonde). At that time, for enhancing the absorption of EPA, 50 mg of Urso granule (manufactured by Mitsubishi Pharma Corporation) was administered through the stomach tube 15 minutes before EPA administration. At the stage of being possible to dietary intake, a commercial EPA preparation was administered orally. Furthermore, both groups were treated in combination with basic treatments on subarachnoid hemorrhage. However, some of the drugs were defined as prohibited substances. At the 30th day from the onset of subarachnoid hemorrhage, an evaluation was carried out by the Glasgow Outcome Scale (GOS).

[1] = 30th day from onset, 32 patients per group, 1,800 mg/day
[2] = 32 patients per group, 1,800 mg/day

With `CC/C=C\C/C=C\C/C=C\C/C=C\C/C=C\CCCC(=O)OCC` [EPA, ethyl eicosapentaenoate] the “GOS: D (Death), number of patients” value [1] was 1, the “GOS: MD (Moderate disability), number of patients” value [1] was 6 and the “GOS: SD (Severe disability), number of patients” value [1] was 2. The “GOS: VS (Vegetative state), number of patients” value [1] was 2, the “GOS: GR (Good recovery), number of patients” value (30th day from onset, 32 patients per group, 1,800 mg/day in three doses, oral or stomach tube, Wilcoxon U test P=0.0128 vs non-administration group) was 21 and the “Death, number of patients” value [2] was 1. The “Survival, number of patients” value [2] was 31, the Survival rate (32 patients per group, 1,800 mg/day, Fisher's exact test P=0.0265 vs non-administration group) was 97% and the “Adverse event considered as a result of the EPA administration” value (subarachnoid hemorrhage patients, 1,800 mg/day for 14 days and continued during hospital stay) was “not found”.
